How the values were obtained:
CXCR4+CD34+ stem cells = test: CXCR4+CD34+ stem cell mobilization; format: in vivo, C57BL/6 mice; conditions: 6 mg/kg SC, peripheral blood 2 h after dosing
Protocol: Cy7, and CD206-APC (BioLegend, San Diego, CA) antibodies, as previously described.[8] Flow cytometry data were acquired on a BD FACSAria III flow cytometer and analyzed with […]
C57BL/6 male mice were treated with potential CXCR4 antagonist individually by subcutaneous injection, and then blood samples containing mobilized stem/progenitor cells were collected 2 hours later. After labeled with specific antibodies, including APC-conjugated anti-CXCR4 (clone 2B11; eBioscience) and FITC-conjugated anti-CD34 (clone RAM34; eBioscience), cells were washed, characterized and quantified by flow cytometer (Guava Technologies, Hayward, CA, USA). Each data point included at least 60,000 events for analysis of other cell types.
Western blotting was conducted by following standard procedures. HCA-1 or JHH-7 cells (10^5 cells per well) were seeded in 12-well plates (Costar, IL), incubated for 12 h and […]
Reverse transcription quantitative real time PCR
Total RNA was extracted from HCA-1 cells using the RNeasy Mini Kit (Qiagen, CA, USA). cDNAs were synthesized using the High-Capicity cDNA Reverse Transcription Kit (Applied Biosystems, CA, USA). Primers specific for Slug, Fn1, Cdh2, Vim, Foxc2, Zeb1, Zeb2, Twist1, Cdh1, Mta3, Cldn3, Cldn5, β-actin and GAPDH were used, and relative gene expression was determined using Real-Time SYBR Green PCR Master Mix (Applied Biosystems, CA, USA) on a QPCR System. […]

bradykinin B1 receptor = molecular target: T1, bradykinin B1 receptor (Homo sapiens, UniProt P46663); test: Off-target standard assay (radioligand binding, Eurofins Panlabs); conditions: read-out: Inhibition of bradykinin B1 receptor (B1R)
T1 construct: purchased Eurofins Panlabs, Inc (Taipei, Taiwan, ROC)
T1 sequence (P46663 1-353): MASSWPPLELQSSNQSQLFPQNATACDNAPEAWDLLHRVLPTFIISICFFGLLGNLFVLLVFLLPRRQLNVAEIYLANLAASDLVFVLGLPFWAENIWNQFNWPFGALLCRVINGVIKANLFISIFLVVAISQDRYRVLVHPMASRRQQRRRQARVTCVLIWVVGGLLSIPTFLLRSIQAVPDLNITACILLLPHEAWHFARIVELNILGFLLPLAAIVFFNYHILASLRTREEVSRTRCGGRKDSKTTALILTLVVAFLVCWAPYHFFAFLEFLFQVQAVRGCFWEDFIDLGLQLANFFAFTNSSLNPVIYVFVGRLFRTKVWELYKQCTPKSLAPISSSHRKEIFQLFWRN
Excerpt: (§1) Table: List of genes examined by real-time PCR and the primer sequences used.
(§2) Genes Forward primers Reverse primers […]
(§3) Vim 5’-[…]-3’ 5’-[…]-3’ […]
(§4) Zeb2 5’-[…]-3’ 5’-[…]-3’
(§5) Twist1 5’-[…]-3’ 5’-[…]-3’
(§6) Cdh1 5’-[…]-3’ 5’-[…]-3’
(§7) Mta3 5’-[…]-3’ 5’-[…]-3’ […]
(§8) Off-target standard assays
(§9) Methods employed in this study have been adapted from the scientific literature to […]
(§10) maximize reliability and reproducibility. Reference standards were run as an integral part of […]
(§11) each assay to ensure the validity of the results obtained. Radioligand binding Assays were […]
(§12) performed under conditions described in the accompanying "Methods" section of this report […]
(§13) by Eurofins Panlabs, Inc (Taipei, Taiwan, ROC).
(§14) BPRCX807 were tested in the hERG (hERG-CHO, automated patch-clamp) assay and determined at Eurofins Panlabs (Missouri, USA). The experiment was accepted in accordance with Eurofins validation Standard Operating Procedure.
(§15) Selectivity Screening of various chemokine receptors
(§16) The results were performed by Eurofins DiscoverX (Fremont, California, USA). The

dopamine D3 receptor = molecular target: T2, dopamine D3 receptor (Homo sapiens, UniProt P35462); test: as above; conditions: read-out: Inhibition of dopamine D3 receptor (D3R)
T2 construct: purchased Eurofins Panlabs, Inc (Taipei, Taiwan, ROC)
Excerpt: as §1, §2, §3, §4, §5, §6, §7, §8, §9, §10, §11, §12, §13, §14, §15, §16

T2 sequence (P35462 whole entry, species assumed): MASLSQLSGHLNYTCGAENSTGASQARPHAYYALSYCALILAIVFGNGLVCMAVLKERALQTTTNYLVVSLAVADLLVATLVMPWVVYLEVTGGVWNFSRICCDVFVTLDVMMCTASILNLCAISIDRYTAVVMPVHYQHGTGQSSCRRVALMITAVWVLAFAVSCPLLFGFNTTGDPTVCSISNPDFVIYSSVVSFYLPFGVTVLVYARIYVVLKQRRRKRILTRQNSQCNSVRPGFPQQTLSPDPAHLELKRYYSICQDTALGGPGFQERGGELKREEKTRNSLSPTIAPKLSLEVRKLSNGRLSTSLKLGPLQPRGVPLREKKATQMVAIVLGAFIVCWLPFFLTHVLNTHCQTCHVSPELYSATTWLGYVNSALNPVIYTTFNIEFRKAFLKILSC

Cc1cc(NC2CCN(C(=O)CCNCC(=O)O)CC2)nc(NCc2nc(CCCNCCCNC3CCCCC3)co2)n1 [BPRCX807]
Number of CXCR4+CD34+ stem cells mobilized, relative to AMD3100 (CXCR4+CD34+ stem cells): roughly 1.5 fold
inhibition at 10 µM (bradykinin B1 receptor): 62%
inhibition at 10 µM (dopamine D3 receptor): 58%
